Measured values published in patent US9682976B2, “Protein kinase C inhibitors and uses thereof” (Rigel Pharmaceuticals, Inc., priority 2012, dated 2017).
pEC50: −log10 of the molar value.

Tested on: PKC mediated IL-2 production
Assay: IL-2 ELISA, human primary T cell, anti CD3+CD28+
Format: cell-based
Settings: human primary T cells stimulated with αCD3 and αCD28, 24 hours
Method: Compounds 1-328 were tested in a whole cell functional assay for PKC mediated IL-2 production as follows. Human primary T cell isolation and culture: Human primary T cells were prepared as follows. Whole blood was obtained from a healthy volunteer, mixed 1:1 with PBS, layered on to Ficoll Hypaque (Amersham Pharmacia Biotech, Piscataway, N.J., Catalog #17-1440-03) in 2:1 blood/PBS:ficoll ratio and centrifuged for 30 minutes at 4° C. at 1750 rpm. The cells at the serum: ficoll interface were recovered and washed twice with 5 volumes of PBS. These freshly isolated human peripheral blood mononuclear cells were cultured in Yssel's medium containing 40 U/ml IL2 in a flask pre-coated with […] αCD3 and 5 μg/ml αCD28 (Anti-Human CD3, BD Pharmingen Catalog #555336, Anti-Human CD28, Beckman Coulter Catalog #IM1376). The cells were stimulated for 3-4 days, then transferred to a fresh flask and maintained in RPMI (RPMI-1640 with L-Glutamine; Mediatech, Inc., Herndon Va., cat. #10-040-CM) with 10% FBS and 40 U/ml IL-2. The primary T-cells were then washed twice with PBS to remove the IL-2.
Primary T cell stimulation and IL2 ELISA: Human primary T cells (100,000 cells per well) were pre-incubated with or without test compound in Yssel's medium for 1 hour at 37° C. Cells were then stimulated by transferring them to round-bottom 96-well plates pre-coated with […] αCD3 and 5 μg/ml αCD28. For counter assay, cells were instead stimulated by adding 8× stock solutions of PMA and ionomycin in Yssels (for final concentrations of 0.5 ng/ml PMA and 0.1 uM ionomycin, both from Calbiochem). Cells were incubated at 37° C. for 24 hours before 100 μL supernatants were harvested for quantification of IL-2 by ELISA using Human IL-2 Duoset ELISA Kit from R and D Systems, Cat. # DY202E.

Row | SMILES | pEC50 (Homo sapiens, T-cell, 24 h) | other results
1 | CC1(C)C[C@H](Nc2nc(Nc3ccc(OCC(O)(C(F)(F)F)C(F)(F)F)c(C#N)c3)ncc2F)C[C@@H]2CCCN21 [Compound 209, 5-((4-(((7R,8aS)-5,5-dimethyloctahydroindolizin-7-yl)amino)-5-fluoropyrimidin-2-yl)amino)-2-(3,3,3-trifluoro-2-hydroxy-2-(trifluoromethyl)propoxy)benzonitrile] | 6.30 to 7.00 | –
2 | COc1cc(Nc2ncc(Cl)c(N[C@@H]3C[C@@H]4CCCN4C(C)(C)C3)n2)cc(OC)c1 [Compound 162, 5-chloro-N2-(3,5-dimethoxyphenyl)-N4-((7R,8aS)-5,5-dimethyloctahydroindolizin-7-yl)pyrimidine-2,4-diamine] | 6.30 to 7.00 | –
3 | CC1(C)CC(Nc2nc(Nc3ccc(O[C@@H]4CCOC4)c(C#N)c3)ncc2F)CC2CCCN21 (single isomer, unassigned) [Compound 59] | – | pEC50: 6.30 to 7.00
4 | CC1(C)C[C@@H](Nc2nc(Nc3cc(-n4cnnn4)c(C4CC4)cc3F)ncc2F)C[C@@H]2CC(F)(F)CN21 [Compound 43, N^2-(4-cyclopropyl-2-fluoro-5-(1H-tetrazol-1-yl)phenyl)-5-fluoro-N^4-((7S,8aR)-2,2-difluoro-octahydro-5,5-dimethylindolizin-7-yl)pyrimidine-2,4-diamine] | 5.00 to 6.00 | –
5 | CC(C)N1CCC(Oc2ccc(Nc3ncc(F)c(N[C@H]4C[C@H]5CCCN5C(C)(C)C4)n3)cc2OC(F)F)CC1 (single isomer, unassigned) [Compound 7, (R/S, S/R, R/R, S/S)-N^2-(4-(1-isopropylpiperidin-4-yloxy)-3-(difluoromethoxy)phenyl)-5-fluoro-N^4-(octahydro-5,5-dimethylindolizin-7-yl)pyrimidine-2,4-diamine] | – | pEC50: 5.00 to 6.00
6 | CC1(C)C[C@H](Nc2nc(Nc3ccc4c(c3)-n3nnnc3C(CO)(CO)O4)ncc2F)C[C@@H]2CCCN21 [Compound 125, (8-((4-(((7R,8aS)-5,5-dimethyloctahydroindolizin-7-yl)amino)-5-fluoropyrimidin-2-yl)amino)-4H-benzo[b]tetrazolo[1,5-d][1,4]oxazine-4,4-diyl)dimethanol] | 5.00 to 6.00 | –
7 | COc1cc(-n2nnnc2C)c(F)c(Nc2ncc(F)c(N[C@@H]3C[C@@H]4CCCN4C(C)(C)C3)n2)c1F [Compound 243, 5-fluoro-N2-(2,6-difluoro-3-methoxy-5-(5-methyl-1H-tetrazol-1-yl)phenyl)-N4-((7R,8aS)-octahydro-5,5-dimethylindolizin-7-yl)pyrimidine-2,4-diamine] | 6.00 to 6.30 | –
8 | COc1ccc(Nc2ncc(F)c(N[C@@H]3C[C@@H]4CCCN4C(C)(C)C3)n2)cc1-n1nnnc1C [Compound 140, N4-((7R,8aS)-5,5-dimethyloctahydroindolizin-7-yl)-5-fluoro-N2-(4-methoxy-3-(5-methyl-1H-tetrazol-1-yl)phenyl)pyrimidine-2,4-diamine] | > 7.00 | –
9 | CCN(CC)CCOc1cc(F)c(Nc2ncc(F)c(N[C@@H]3C[C@@H]4CCCN4C(C)(C)C3)n2)cc1-n1nnn(C)c1=O [Compound 194, 1-(2-(2-(diethylamino)ethoxy)-5-((4-(((7R,8aS)-5,5-dimethyloctahydroindolizin-7-yl)amino)-5-fluoropyrimidin-2-yl)amino)-4-fluorophenyl)-4-methyl-1,4-dihydro-5H-tetrazol-5-one] | 6.30 to 7.00 | –
10 | CC1(C)C[C@H](Nc2nc(Nc3cccc(-n4nnnc4SC4COC4)c3)ncc2F)C[C@@H]2CCCN21 [Compound 262, 5-fluoro-N4-((7R,8aS)-octahydro-5,5-dimethylindolizin-7-yl)-N2-(3-(5-(oxetan-3-ylthio)-1H-tetrazol-1-yl)phenyl)pyrimidine-2,4-diamine] | > 7.00 | –
11 | CC(C)Oc1cc(F)c(Nc2ncc(F)c(N[C@@H]3C[C@@H]4CCCN4C(C)(C)C3)n2)cc1-n1nnnc1C1CC1 [Compound 257, N2-(5-(5-cyclopropyl-1H-tetrazol-1-yl)-2-fluoro-4-isopropoxyphenyl)-5-fluoro-N4-((7R,8aS)-octahydro-5,5-dimethylindolizin-7-yl)pyrimidine-2,4-diamine] | < 5.00 | –
12 | COc1cc(Nc2ncc(Cl)c(N[C@@H]3C[C@@H]4CCCN4C(C)(C)C3)n2)cc(-n2nnnc2C)c1 [Compound 152, 5-chloro-N4-((7R,8aS)-5,5-dimethyloctahydroindolizin-7-yl)-N2-(3-methoxy-5-(5-methyl-1H-tetrazol-1-yl)phenyl)pyrimidine-2,4-diamine] | > 7.00 | –
13 | Cn1nnn(-c2cc(Nc3ncc(F)c(N[C@@H]4C[C@@H]5CCCN5C(C)(C)C4)n3)c(F)cc2OC2CCOCC2)c1=O [Compound 114, 1-(5-((4-(((7R,8aS)-5,5-dimethyloctahydroindolizin-7-yl)amino)-5-fluoropyrimidin-2-yl)amino)-4-fluoro-2-((tetrahydro-2H-pyran-4-yl)oxy)phenyl)-4-methyl-1,4-dihydro-5H-tetrazol-5-one] | 6.00 to 6.30 | –
14 | Cn1nnn(-c2cc(Nc3ncc(F)c(NC4CCN5CCCC5C4)n3)c(F)cc2C2CC2)c1=O (racemic) [Compound 27, (±)-1-(5-(5-fluoro-4-(octahydroindolizin-7-ylamino)pyrimidin-2-ylamino)-2-cyclopropyl-4-fluorophenyl)-4-methyl-1H-tetrazol-5(4H)one] | 5.00 to 6.00 | –
15 | CC1(C)CC[C@H]2C[C@@H](Nc3nc(Nc4cc(-n5nnnc5C5COC5)c(C5CC5)cc4F)ncc3F)CCN21 [Compound 301, N2-(4-Cyclopropyl-2-fluoro-5-(5-(oxetan-3-yl)-1H-tetrazol-1-yl)phenyl)-N4-((7S,8aS)-3,3-dimethyloctahydroindolizin-7-yl)-5-fluoropyrimidine-2,4-diamine] | > 7.00 | –
16 | Cn1nnn(-c2cc(Nc3ncc(F)c(N[C@@H]4C[C@@H]5CCCN5C(C)(C)C4)n3)c(F)cc2CCO)c1=O [Compound 93, 1-(5-(4-((7R,8aS)-octahydro-5,5-dimethylindolizin-7-ylamino)-5-fluoropyrimidin-2-ylamino)-4-fluoro-2-(2-hydroxyethyl)phenyl)-4-methyl-1H-tetrazol-5(4H)-one] | 6.30 to 7.00 | –
17 | CC1(C)C[C@H](Nc2nc(Nc3ccc(N4CCC(O)CC4)c(C#N)c3)ncc2F)C[C@@H]2CCCN21 [Compound 107, 5-((4-(((7R,8aS)-5,5-dimethyloctahydroindolizin-7-yl)amino)-5-fluoropyrimidin-2-yl)amino)-2-(4-hydroxypiperidin-1-yl)benzonitrile] | 6.30 to 7.00 | –
18 | CC1(C)CC(Nc2nc(Nc3cc(-n4cnnn4)c(C4CC4)cc3F)ncc2F)CC2CCCN21 (single isomer, unassigned) [Compound 54, N^2-(4-cyclopropyl-2-fluoro-5-(1H-tetrazol-1-yl)phenyl)-5-fluoro-N^4-(octahydro-5,5-dimethylindolizin-7-yl)pyrimidine-2,4-diamine] | > 7.00 | –
19 | Cc1ncc(Nc2ncc(F)c(NC3CC4CCCN4C(C)(C)C3)n2)cc1-n1nnnc1C (stereo not drawn) [Compound 15] | – | pEC50: 6.30 to 7.00
20 | COc1ccc(Nc2ncc(F)c(N[C@@H]3C[C@@H]4CCCN4C(C)(C)C3)n2)cc1-n1nnn(C)c1=O [Compound 278, 1-(5-(4-((7R,8aS)-octahydro-5,5-dimethylindolizin-7-ylamino)-5-fluoropyrimidin-2-ylamino)-2-methoxyphenyl)-4-methyl-1H-tetrazol-5(4H)-one] | > 7.00 | –
21 | COc1cc(Nc2ncc(F)c(N[C@@H]3C[C@H]4CCCN4C(C)(C)C3)n2)cc(-n2nnnc2C)c1 (single isomer, unassigned) [Compound 12, (R/S, S/R, R/R, S/S)-5-fluoro-N4-(octahydro-5,5-dimethylindolizin-7-yl)N2-(3-methoxy-5-(5-methyl-1H-tetrazol-1-yl)phenyl)pyrimidine-2,4-diamine] | – | pEC50: 6.00 to 6.30
22 | [2H]C([2H])(O)C([2H])([2H])Oc1cc(F)c(Nc2ncc(F)c(N[C@@H]3C[C@@H]4CCCN4C(C)(C)C3)n2)cc1-n1nnn(C)c1=O [Compound 221, 1-(5-((4-(((7R,8aS)-5,5-dimethyloctahydroindolizin-7-yl)amino)-5-fluoropyrimidin-2-yl)amino)-4-fluoro-2-(2-hydroxyethoxy-1,1,2,2-d4)phenyl)-4-methyl-1,4-dihydro-5H-tetrazol-5-one] | – | pEC50 (T-cell): > 7.00
23 | C[S+]([O-])c1nnnn1-c1cccc(Nc2ncc(F)c(N[C@@H]3C[C@@H]4CCCN4C(C)(C)C3)n2)c1 (stereo partly drawn) [Compound 270, 5-fluoro-N4-((7R,8aS)-octahydro-5,5-dimethylindolizin-7-yl)-N2-(3-(5-(methylsulfinyl)-1H-tetrazol-1-yl)phenyl)pyrimidine-2,4-diamine] | 6.00 to 6.30 | –
24 | Cc1ccc(Nc2ncc(F)c(N[C@@H]3C[C@@H]4CCCN4C(C)(C)C3)n2)cc1-n1nnn(C2COC2)c1=O [Compound 276, 1-(5-(4-((7R,8aS)-octahydro-5,5-dimethylindolizin-7-ylamino)-5-fluoropyrimidin-2-ylamino)-2-methylphenyl)-4-(oxetan-3-yl)-1H-tetrazol-5(4H)-one] | > 7.00 | –
